# Several values for one entry are separate records, joined by “and”; a condition that tells them apart may be missing. Equal values may be shown once. Marks after values point to notes of the source that are not given here.
# What was measured:
# anti-collagen IgG1 = test: CIA model: rat anti-collagen IgG1 levels; type: in vivo, Lewis rats; parameters: Average rat anti-collagen IgG1 levels, Mean: unit not given here
# [1] = CIA study: animal body weight; conditions: for Average animal body weight / Average animal body weight percent change: CIA; for Animal body weight percent change (%): individual animals
compound,measurement,setting,value
"Cn1cc(-c2ccccc2)c(-c2cn(C)c(=O)c3[nH]c(-c4cnn(C(F)(F)F)c4)cc23)cc1=O [Compound A, 6-methyl-4-(1-methyl-2-oxo-5-phenyl-1,2-dihydropyridin-4-yl)-2-(1-(trifluoromethyl)-1H-pyrazol-4-yl)-1,6-dihydro-7H-pyrrolo[2,3-c]pyridin-7-one]","Average rat anti-collagen IgG1 levels, Mean",anti-collagen IgG1; Group 5 (CIA + Compound A 1 mg/kg),1180.61**
same,"Average rat anti-collagen IgG1 levels, Mean",anti-collagen IgG1; Group 6 (CIA + Compound A 3 mg/kg),569.60**
same,"Average rat anti-collagen IgG1 levels, Mean",anti-collagen IgG1; Group 7 (CIA + Compound A 10 mg/kg),220.15**
same,Inhibition of IgG1,anti-collagen IgG1; all three doses,near complete inhibition of IgG1
same,Animal body weight,"[1]; CIA + Compound A 1 mg/kg, Day 8, 1 mg/kg",172 g and 157 g and 170 g and 161 g and 171 g and 165 g
same,Animal body weight,"[1]; CIA + Compound A 1 mg/kg, Day 9, 1 mg/kg",180 g and 156 g and 175 g and 162 g and 173 g and 170 g and 169 g
same,Animal body weight,"[1]; CIA + Compound A 1 mg/kg, Day 10, 1 mg/kg",178 g and 155 g and 166 g and 170 g and 176 g
same,Animal body weight,"[1]; CIA + Compound A 1 mg/kg, Day 11, 1 mg/kg",180 g and 157 g and 178 g and 162 g and 170 g and 175 g and 167 g
same,Animal body weight,"[1]; CIA + Compound A 1 mg/kg, Day 12, 1 mg/kg",182 g and 158 g and 176 g and 162 g and 174 g and 177 g and 165 g
same,Animal body weight,"[1]; CIA + Compound A 1 mg/kg, Day 13, 1 mg/kg",180 g and 158 g and 179 g and 160 g and 174 g and 172 g and 165 g
same,Animal body weight,"[1]; CIA + Compound A 1 mg/kg, Day 14, 1 mg/kg",178 g and 159 g and 179 g and 155 g and 175 g and 170 g and 168 g
same,Animal body weight,"[1]; CIA + Compound A 3 mg/kg, Day 8, 3 mg/kg",160 g and 174 g and 173 g and 169 g and 163 g and 165 g and 167 g and 157 g
same,Animal body weight,"[1]; CIA + Compound A 3 mg/kg, Day 9, 3 mg/kg",162 g and 171 g and 178 g and 169 g and 160 g and 163 g and 170 g
same,Animal body weight,"[1]; CIA + Compound A 3 mg/kg, Day 10, 3 mg/kg",162 g and 172 g and 177 g and 170 g and 168 g and 167 g
same,Animal body weight,"[1]; CIA + Compound A 3 mg/kg, Day 11, 3 mg/kg",160 g and 172 g and 178 g and 169 g and 165 g
same,Animal body weight,"[1]; CIA + Compound A 3 mg/kg, Day 12, 3 mg/kg",158 g and 176 g and 170 g and 167 g and 169 g and 172 g and 165 g
same,Animal body weight,"[1]; CIA + Compound A 3 mg/kg, Day 13, 3 mg/kg",162 g and 175 g and 166 g and 173 g and 157 g and 168 g and 171 g
same,Animal body weight,"[1]; CIA + Compound A 3 mg/kg, Day 14, 3 mg/kg",163 g and 177 g and 170 g and 175 g and 156 g and 167 g and 158 g
same,Animal body weight,"[1]; CIA + Compound A 10 mg/kg, Day 8, 10 mg/kg",162 g
same,Animal body weight,"[1]; CIA + Compound A 10 mg/kg, Day 9, 10 mg/kg",164 g
same,Animal body weight,"[1]; CIA + Compound A 10 mg/kg, Day 10, 10 mg/kg",165 g
same,Animal body weight,"[1]; CIA + Compound A 10 mg/kg, Day 11, 10 mg/kg",164 g
same,Animal body weight,"[1]; CIA + Compound A 10 mg/kg, Day 12, 10 mg/kg",163 g
same,Animal body weight,"[1]; CIA + Compound A 10 mg/kg, Day 13, 10 mg/kg",163 g
same,Animal body weight,"[1]; CIA + Compound A 10 mg/kg, Day 14, 10 mg/kg",164 g
same,Average animal body weight,"[1]; Day 0, 1 mg/kg",163
same,Average animal body weight percent change,"[1]; Day 0, 1 mg/kg",0.00%
same,Average animal body weight,"[1]; Day 0, 3 mg/kg",166
same,Average animal body weight percent change,"[1]; Day 0, 3 mg/kg",0.00%
same,Average animal body weight,"[1]; Day 0, 10 mg/kg",162
same,Average animal body weight percent change,"[1]; Day 0, 10 mg/kg",0.00%
same,Average animal body weight,"[1]; Day 1, 1 mg/kg",166
same,Average animal body weight percent change,"[1]; Day 1, 1 mg/kg",1.55%
same,Average animal body weight,"[1]; Day 1, 3 mg/kg",165
same,Average animal body weight percent change,"[1]; Day 1, 3 mg/kg",−0.19%
same,Average animal body weight,"[1]; Day 1, 10 mg/kg",164
same,Average animal body weight percent change,"[1]; Day 1, 10 mg/kg",1.12%
same,Average animal body weight,"[1]; Day 2, 1 mg/kg",163
same,Average animal body weight percent change,"[1]; Day 2, 1 mg/kg",−0.07%
same,Average animal body weight,"[1]; Day 2, 3 mg/kg",165
same,Average animal body weight percent change,"[1]; Day 2, 3 mg/kg",−0.57%
same,Average animal body weight,"[1]; Day 2, 10 mg/kg",163
same,Average animal body weight percent change,"[1]; Day 2, 10 mg/kg",0.71%
same,Average animal body weight,"[1]; Day 3, 1 mg/kg",165
same,Average animal body weight percent change,"[1]; Day 3, 1 mg/kg",0.96%
same,Average animal body weight,"[1]; Day 3, 3 mg/kg",163
same,Average animal body weight percent change,"[1]; Day 3, 3 mg/kg",−1.45%
same,Average animal body weight,"[1]; Day 3, 10 mg/kg",163
same,Average animal body weight percent change,"[1]; Day 3, 10 mg/kg",0.63%
same,Average animal body weight,"[1]; Day 4, 1 mg/kg",165
same,Average animal body weight percent change,"[1]; Day 4, 1 mg/kg",1.26%
same,Average animal body weight,"[1]; Day 4, 3 mg/kg",165
same,Average animal body weight percent change,"[1]; Day 4, 3 mg/kg",−0.35%
same,Average animal body weight,"[1]; Day 4, 10 mg/kg",163
same,Average animal body weight percent change,"[1]; Day 4, 10 mg/kg",0.72%
same,Average animal body weight,"[1]; Day 5, 1 mg/kg",169
same,Average animal body weight percent change,"[1]; Day 5, 1 mg/kg",3.76%
same,Average animal body weight,"[1]; Day 5, 3 mg/kg",167
same,Average animal body weight percent change,"[1]; Day 5, 3 mg/kg",0.70%
same,Average animal body weight,"[1]; Day 5, 10 mg/kg",166
same,Average animal body weight percent change,"[1]; Day 5, 10 mg/kg",2.60%
same,Average animal body weight,"[1]; Day 6, 1 mg/kg",170
same,Average animal body weight percent change,"[1]; Day 6, 1 mg/kg",4.33%
same,Average animal body weight,"[1]; Day 6, 3 mg/kg",166
same,Average animal body weight percent change,"[1]; Day 6, 3 mg/kg",0.43%
same,Average animal body weight,"[1]; Day 6, 10 mg/kg",166
same,Average animal body weight percent change,"[1]; Day 6, 10 mg/kg",2.04%
same,Average animal body weight,"[1]; Day 7, 1 mg/kg",170
same,Average animal body weight percent change,"[1]; Day 7, 1 mg/kg",3.94%
same,Average animal body weight,"[1]; Day 7, 3 mg/kg",164
same,Average animal body weight percent change,"[1]; Day 7, 3 mg/kg",−0.93%
same,Average animal body weight,"[1]; Day 7, 10 mg/kg",164
same,Average animal body weight percent change,"[1]; Day 7, 10 mg/kg",0.89%
same,Average animal body weight,"[1]; Day 8, 1 mg/kg",167
same,Average animal body weight percent change,"[1]; Day 8, 1 mg/kg",2.26%
same,Average animal body weight,"[1]; Day 8, 3 mg/kg",166
same,Average animal body weight percent change,"[1]; Day 8, 3 mg/kg",0.36%
same,Average animal body weight,"[1]; Day 8, 10 mg/kg",162
same,Average animal body weight percent change,"[1]; Day 8, 10 mg/kg",−0.31%
same,Animal body weight percent change (%),"[1]; Day 8, Group 5 (CIA + Compound A 1 mg/kg), 1 mg/kg",4.24% and −4.27% and 4.94% and 5.92% and 1.78% and 2.40% and 1.23%
same,Animal body weight percent change (%),"[1]; Day 8, Group 6 (CIA + Compound A 3 mg/kg), 3 mg/kg",−4.76% and 1.75% and −1.14% and 1.20% and −2.40% and 1.23% and 6.37% and 0.64%
same,Average animal body weight,"[1]; Day 9, 1 mg/kg",169
same,Average animal body weight percent change,"[1]; Day 9, 1 mg/kg",3.79%
same,Average animal body weight,"[1]; Day 9, 3 mg/kg",167
same,Average animal body weight percent change,"[1]; Day 9, 3 mg/kg",0.75%

# Source: US20260217701A1, “SELECTIVE BET INHIBITORS AND USES THEREOF” (Tay Therapeutics Limited, priority 2022, published 2026)
